Test results from paper PMC4335872, “Pharmacokinetic-Pharmacodynamic Analysis of Spiroindolone Analogs and KAE609 in a Murine Malaria Model” (Antimicrobial Agents and Chemotherapy, 2015).
Values after ≈ are worked out from the molar mass of the structure shown.

Legend:
[1] = Intrinsic clearance in mouse liver microsomes; format: in vitro ADME; details: per mg protein
From the text: (§1) page 5: Running title: PreclinicalPK -PD of antimalarials 73 to high through put form at using in- house standard assa y protocols that are described in the 74 literature. 75 (a)HT-Equilibrium solubilit y at pH 6.8( 1); (b)Parallel Artificial Membrane P ermeability Assa y 76 expressed in % fraction absorbed (FA) ( 2,3 ); (c)Apparent permeability from apical to […] 78 tested; (d)intrinsic clearance in mouse liver micro somes ex pressed as µ L/ min/mg protein, in 79 the presen ce of liver enzym es ( 6); (e)Mous e plasm a protein binding using rapid equilibrium […] 81 82 83 84 85 86 87 88 89 90 91 92 93 94 95 96 97 98 5

[2] = RBC to plasma partitioning; format: in vitro ADME; details: mean from 1 µM & 10 µM
From the text: (§2) page 5: Running title: PreclinicalPK -PD of antimalarials 73 to high through put form at using in- house standard assa y protocols that are described in the 74 literature. […] 81 82 83 84 85 86 87 88 89 90 91 92 93 94 95 96 97 98 5

[3] = In vivo PK after single p.o. and i.v. dosing in CD-1 mice; design: species or system female CD-1 mice; details: CD-1 mice; for CL / Vss / t1/2 (i.v.): i.v. 5 mg/kg; for F (oral bioavailability): oral 25 mg/kg vs i.v. 5 mg/kg; for AUC0–24 / Tmax / t1/2 (oral) / Cmax: single oral dose 25 mg/kg; for Cmax: plasma
Experimental: The Institutional Animal Care and Use Committee (IACUC) of the Novartis Institute for Tropical Diseases (NITD), registered with the Agri-Food and Veterinary authority (AVA), Government of Singapore, reviewed and approved all animal experimental protocols. […] The mice were allowed to acclimate before the initiation of the experiments. Feed and water were given ad libitum. […] The blood samples from the mice were collected at 0.02 (for i.v. only), 0.08, 0.25, 0.5, 1, 2, 4, 8, 16, and 24 h postdosing. The dose proportionality studies were conducted with KAE609. […] Additional samples were collected at 32 h and 48 h postdose for the 1- and 5-mg/kg dose groups and up to 72 h postdose for the 100-mg/kg dose group. Groups of three mice were used for each time point. Blood was centrifuged at 13,000 rpm for 7 min at 4°C, and plasma was harvested and stored at -20°C until analysis. […] After vortexing and centrifuging the mixture, the supernatant was removed and 5 μl of sample analyzed. Analyte quantitation was performed by high-performance liquid chromatography coupled with tandem mass spectrometry (LC-MS/MS). […] Instrument control and data acquisition were performed using the Applied Biosystems software Analyst 1.4.2. […] Multiple-reaction monitoring (MRM) was combined with optimized MS parameters to maximize detection specificity and sensitivity. The most intense MRM transitions [338.3/295.1 for (+)-1, 370.1/327.0 for (+)-2, 370.0/326.9 for (+)-3, 354.1/310.8 for (+)-4, 354.1/311.2 for (+)-5, 372.1/329.1 for (+)-6, 388.0/331.8 for (+)-7, 372.1/316.1 for (-)-6, and 388/332 for (-)-7] were used for quantitation. Most compounds were analyzed using electrospray ionization in the negative mode, except (+)-1, which was analyzed using positive mode. The recovery of the compounds from plasma was good and consistent across the concentration range studied. The lower limits of quantification for different compounds ranged from 1.3 to 70 ng/ml in plasma. A calibration curve was freshly prepared and analyzed with every set of study samples. Intraday variability was established with triplicate quality control samples at three concentration levels. The results were accepted if relative standard deviation was <15%. The mean values of the compound concentrations in plasma were obtained from three animals at each time point and plotted against time to generate concentration-time profiles. […] The oral bioavailability (F) was calculated as the ratio between the area under the concentration-time curve from 0 to infinity (AUC0-∞) following oral administration and the AUC0-∞ following intravenous administration corrected for dose (F = […].).

[4] = test system: P. berghei GFP ANKA PbGFPCON; assay: In vitro (ex vivo) P. berghei maturation assay; format: cell-based, Plasmodium berghei; details: 16 h + 8 h incubation; read-out: IC50 (mean ± SD) for P. berghei GFP ANKA PbGFPCON (n = 3)
Experimental: For the in vitro (ex vivo) P. berghei maturation assays ([38]), heparinized blood from infected mice (P. berghei GFP ANKA malaria strain PbGFPCON, a donation from A. P. Waters and C. J. Janse, Leiden University, Leiden, the Netherlands) ([39]) was washed with 9 ml of hypoxanthine-free culture medium and diluted with hypoxanthine-free culture medium and red blood cells (RBCs) from uninfected mice to a hematocrit of 5% and a parasitemia of 0.3%. Serial compound dilutions were prepared in DMSO and distributed as described above. The infected erythrocytes (0.3% final parasitemia and 2.5% final hematocrit) were added into the wells. After the plates were incubated for 16 h, 0.25 μCi of [^3H]hypoxanthine was added per well, and the plates were incubated for an additional 8 h. The parasites were harvested, and the in vitro (ex vivo) P. berghei IC50, IC90, and IC99 values were determined as described above.

P. falciparum NF54 = assay: In vitro [3H]hypoxanthine incorporation assay, P. falciparum NF54; format: cell-based, Plasmodium falciparum; details: 16 h + 8 h incubation; read-out: IC50 (mean ± SD) for P. falciparum NF54 (n = 3)
Experimental: Human erythrocytes served as the host cells. In vitro antimalarial activity was measured using the [^3H]hypoxanthine incorporation assay ([36]) with strain NF54 of P. falciparum (obtained from Hoffmann-LaRoche Ltd.). The compounds were dissolved in dimethyl sulfoxide (DMSO) at a concentration of 10 mM, diluted in hypoxanthine-free culture medium, and titrated in duplicate over a 64-fold range in 96-well plates. […] The parasites were harvested onto glass fiber filters, and radioactivity was measured using a BetaPlate liquid scintillation counter (Wallac, Zurich, Switzerland). All assays were repeated at least three times. The results were recorded and expressed as a percentage of the untreated controls. […] In addition, for the PK-PD analysis of KAE609, an IC99 value was determined by transforming the data from a scintillation counter (Anscombe transformation) to account for Poissonian measurement error. […] Each of the three replicates was performed on a distinct 96-well plate. This has been accounted for in the fitting procedure by means of a Bayesian hierarchical model. The software used for parameter inference was Stan ([37]).

[5] = HT-equilibrium solubility; format: physicochemical; details: pH 6.8, HT-equilibrium solubility
From the text: as §2

Caco-2 cells = assay: Caco-2 permeability; format: in vitro ADME; details: apical to basolateral
From the text: as §1

[6] = Mouse plasma protein binding, rapid equilibrium dialysis; format: in vitro ADME
From the text: as §1

Compound | Hepatic CLint in mouse liver microsomes [1] | RBC to Plasma Ratio [2] | CL [3] | Vss [3] | t1/2 (i.v.) [3] | F (oral bioavailability) [3] | AUC0–24 [3] | Tmax [3] | t1/2 (oral) [3] | Cmax [3] | IC50 [4] | IC50 (P. falciparum NF54) | Solubility [5] | Caco-2 Papp (A-B) (Caco-2 cells) | Mouse PPB [6]
C[C@H]1Cc2c([nH]c3ccc(Cl)cc23)[C@@]2(N1)C(=O)Nc1ccc(Cl)cc12 [(+)-2] | 92 µL/min/mg | 0.77 | 92.6 mL/min/kg | 9.9 L/kg | 4.6 h | 62% | 2900 ng·h/mL | 1 h | 4.3 h | 600 ng/mL | 75 ± 32 nM | 5.6 ± 0.9 nM | 22 µM (≈ 8.19 µg/mL) |  | 
C[C@H]1Cc2c([nH]c3cc(Cl)ccc23)[C@@]2(N1)C(=O)Nc1ccc(Cl)cc12 [(+)-3] | 35 µL/min/mg | 0.93 | 60.1 mL/min/kg | 13.7 L/kg | 4.3 h | 91% | 5800 ng·h/mL | 2 h | 6.2 h | 700 ng/mL | 140 ± 54 nM | 5.6 ± 0.7 nM | 8 µM (≈ 2.98 µg/mL) | 41.7 10-6 cm/sec | 99.7%
